Source: publication PMC9496346, “Controversial Role of Transferrin in the Transport of Ruthenium Anticancer Drugs” (Biomolecules, 2022)
Marks after values point to notes of the source that are not given here.

Columns and labels:
HepG2 cells [1] = test: Cellular Ru uptake by HepG2 cells (ICP-MS); format: cell-based, human; conditions: HepG2, 24 h; 60 μM Ru, added HSA or Tf 30 μM; serum-free DMEM with ~15 μM BSA; media pre-equilibrated 24 h except B1
Description: (§1) Human hepatoma (HepG2) cells were originally received from the American Type Culture Collection (ATCC, Cat. No. HB-8065) and cultured as described previously. This cell line was used for Tf-dependent metal uptake studies because of the high expression levels of human TfR1 [43]. For treatments, the cells were grown to confluence in 24-well plates, using Advanced DMEM (Dulbecco’s modified Eagle’s minimal essential medium, Invitrogen Cat. No. 12491-015), supplemented with L-glutamine (2.0 mM), antibiotic-antimycotic mixture (100 mg mL^−1 penicillin, 100 mg mL^−1 steptomycin and 0.25 mg mL^−1 amphotericin B) and fetal calf serum (heat-inactivated, 2% v/v). Confluent cell layers were washed with serum-free treatment medium (DMEM, Invitrogen Cat. No. 19938-025), supplemented with glutamine, antibiotic-antimycotic mixture and 1.0 mg mL^−1 AlbuMax (Gibco Cat. No. 11020-021). […] After washing, the wells were filled with the treatment medium containing metal additions (detailed in B1–B9 of Table 1). The treatment media were sterilized by filtration through 0.2 µm membrane filters, and pre-equilibrated for 24 h at 310 K and 5% CO2 prior to the addition to cells, except for sample B1 that was used immediately after preparation. All the treatments were performed in triplicate, using random well positions to avoid experimental bias.
(§2) After 24 h incubation with the treatment media (B1–B9 in Table 1), the medium from each well was collected for the determination of Ru–protein binding and BLI analyses, and the wells were washed twice with PBS (0.50 mL/well). […]
(§3) The values of metal uptake were normalized using protein content in cell lysates. For protein determination, Bradford reagent (Sigma Cat. No B6916; 98 µL) was mixed with a small aliquot (2.0 µL) of each cell lysate, and the absorbance at 600 nm was measured using a Victor V3 plate reader. […] The test and calibration samples were analyzed in triplicate. […]

HepG2 cells [2] = test: Cellular Fe content of HepG2 cells (ICP-MS); format: cell-based, human; conditions: HepG2, 24 h; 60 μM Ru, added HSA or Tf 30 μM; serum-free DMEM with ~15 μM BSA
Description: as §1, §2, §3

[3] = test system: protein in cell culture medium; test: Ru–protein binding in cell culture medium (gel filtration, GFAAS); format: in vitro ADME; conditions: medium after 24 h cell treatment; gel filtration >6 kDa; 60 μM Ru, added HSA or Tf 30 μM, ~15 μM BSA
Description: An aliquot (50 µL) of cell culture medium from each well was passed through a separate Bio-Rad P6 centrifugal gel filtration column that was pre-saturated with PBS, according to manufacturer’s instructions. The eluants (50 ± 5 µL volume) contained protein-bound Ru fractions (>6 kDa molecular mass). The protein recovery, measured by Bradford assays, exceeded 95%. Another 50 µL sample of each medium was taken into separate tubes. Both the original and gel-filtered media samples were digested with 0.20 mL of 65% (v/v) HNO3 for 24 h. The digests were diluted with 0.75 mL of 0.10 M HCl, and the Ru content in the samples was determined by GFAAS. The percentage of protein binding was determined from the ratio of Ru content in the gel-filtered and original media samples [30, 31].

[4] = test system: T1, recombinant human transferrin receptor 1 (TfR1); test: BLI of Tf–TfR1 binding in dilute human serum pre-treated with metal complexes; conditions: serum incubated with 100 μM Ru complex or 60 μM Fe(III) as citrate
T1 construct: extracellular domain (Cyst89-Phe760), (His)6-tagged at the N-terminus; purchased Sino Biological, Beijing, China (TfR1); Sigma (human serum, Cat. No. H4522, as source of Tf) 11020-H07H
Description: The effects of Ru complexes on the Tf cycle were determined by BLI using previously developed protocols. The instrument used was a single-channel BLItz analyser (ForteBio, Menlo Park, CA, USA) with a tube holder (250 µL solution volume) and Ni(II)–nta coated optical probes held at 295 ± 1 K. Measurements used the Advanced Kinetics mode. […] Solutions of metal–Tf adducts (typical final Tf concentrations 150 nM or 1.0 µM) were prepared in the binding buffer (Section 2.1). The pH 7.4 binding buffer was used for Tf binding and dissociation from the probe, and the pH 5.6 buffer (Section 2.1) was used to mimic the endosomal step of the Tf cycle. Metal–Tf solutions (A1–A9 in Table 1) were diluted 100–400-fold, cell culture media were diluted 30-fold, and human serum samples were diluted 200-fold with the binding buffer immediately before the BLI measurements. All BLI data were background corrected by using data from buffer only runs with the same TfR1-loaded optical probe. Consistent BLI results were obtained in at least two independent measurements, using different probes and different batches of Tf solutions. Calculations of the Tf–TfR1 binding constants were performed using the 1:1 binding model (BLItz software, Version 1.1, Forte-Bio 2013), which can be used as a reasonable approximation of the physiological 2:2 Tf–TfR1 binding mechanism at low Tf concentrations. […]
(b) BLI response curves for dilute human serum samples in the presence or absence of metal complexes. Intact commercial human serum (Sigma H4522) was incubated with Fe(III)-citrate (60 µM) or with Ru complexes (100 µM) for 4 h at 310 K, then diluted 200-fold (to [Tf] ~ 150 nM) with the binding buffer (20 mM HEPES, 25 mM NaHCO3, 140 mM NaCl, pH = 7.4), and analyzed with the TfR1-loaded BLI probe. Designations of the steps in Tf cycle (A–D) correspond to those in Figure 1d-f, main text. Calculated KD values (1:1 binding model, BLItz software) were as follows: 8.0 nM (serum + Fe(III) citrate); or 28 ± 2 nM (serum in the presence or absence of Ru complexes). Typical anticancer Ru complexes, NAMI-A, KP1019 and RAPTA-C, were synthesized and characterized previously in the Lay group.
(1 picture or pasted object on this page, not shown here)

[5] = Particle size (protein aggregation) by dynamic light scattering; format: physicochemical; conditions: DLS, 298 K; 10 μM Tf in binding buffer pH 7.4
Description: Protein samples (0.10 mM) were diluted 10-fold with binding buffer before the measurements. The measured parameters were the averages of 12–15 scans (scan time, 3 s). […] Analysis of Tf crystal structures that are available in the public domain from the Protein Data Bank (PDB) was performed with PyMOL software (version 2.1.1, Schrodinger LLC 2021, New York, NY, USA).

HepG2 cells [6] = test: Toxicity to HepG2 cells judged from cell morphology during treatment; format: cell-based, human; conditions: HepG2, 24 h incubation, 60 μM Ru
Description: as §1, with “All the treatments were performed in triplicate, using random well positions to avoid experimental bias.” left out
Cellular Fe levels were also measured to control the Tf-mediated Fe uptake. […]

[7] = test system: T2, recombinant human transferrin receptor 1 (TfR1); test: BLI of Tf–TfR1 binding in dilute cell culture media after uptake experiments; conditions: 1.0 µM human Tf, 295 K; serum-free DMEM with 1.0 mg mL−1 BSA collected after HepG2 uptake experiments, diluted 30-fold; 1:1 binding model
T2 construct: extracellular domain (Cyst89-Phe760), (His)6-tagged at the N-terminus; purchased Sino Biological, Beijing, China (TfR1)
Description: The effects of Ru complexes on the Tf cycle were determined by BLI using previously developed protocols. The instrument used was a single-channel BLItz analyser (ForteBio, Menlo Park, CA, USA) with a tube holder (250 µL solution volume) and Ni(II)–nta coated optical probes held at 295 ± 1 K. Measurements used the Advanced Kinetics mode. […] Solutions of metal–Tf adducts (typical final Tf concentrations 150 nM or 1.0 µM) were prepared in the binding buffer (Section 2.1). The pH 7.4 binding buffer was used for Tf binding and dissociation from the probe, and the pH 5.6 buffer (Section 2.1) was used to mimic the endosomal step of the Tf cycle. Metal–Tf solutions (A1–A9 in Table 1) were diluted 100–400-fold, cell culture media were diluted 30-fold, and human serum samples were diluted 200-fold with the binding buffer immediately before the BLI measurements. All BLI data were background corrected by using data from buffer only runs with the same TfR1-loaded optical probe. Consistent BLI results were obtained in at least two independent measurements, using different probes and different batches of Tf solutions. Calculations of the Tf–TfR1 binding constants were performed using the 1:1 binding model (BLItz software, Version 1.1, Forte-Bio 2013), which can be used as a reasonable approximation of the physiological 2:2 Tf–TfR1 binding mechanism at low Tf concentrations.
(a) BLI response curves for 1.0 µM of human Tf at 295 K in dilute cell culture media after Ru uptake experiments by HepG2 cells (Section 3.2 in the main text). Media (serum-free DMEM, containing 1.0 mg mL−1 BSA as a background protein, as well as KP1019 and/or Tf, as shown in the figure legend), were collected after the end of uptake experiments, then were diluted 30-fold with buffer (20 mM HEPES + 25 mM NaHCO3 + 140 mM NaCl, pH = 7.4) and applied to TfR1-loaded BLI probe. Designations of the steps in Tf cycle (A–D) correspond to those in Figure 1d-f, main text. Calculated KD values (1:1 binding model, BLItz software) were as […]

Row | Compound | Fe Content (cellular metal content) (HepG2 cells [2]) | % Ru–Protein (proportion of protein-bound Ru in cell culture medium) [3] | Effect on Tf–TfR1 binding in whole human serum [4] | Mean Particle Size [5] | also measured
1 | O=C([O-])CN(CC(=O)[O-])CC(=O)[O-].O=C([O-])CN(CC(=O)[O-])CC(=O)[O-].[Ru+3] [[Ru(nta)2]^3−, [Ru^III(nta)2]^3−] | 1.4 ± 0.4 nmol per mg protein | 2 ± 1 ^g molar % |  |  | Ru Uptake (cellular metal content) (HepG2 cells [1]): 0.09 ± 0.03 nmol per mg protein
2 | Fe(III) citrate |  |  | significantly increased the binding affinity |  | 
3 | Ru2Tf: apoTf + 2.0 eq. [Ru^III(nta)2]^3−; Ru(III) bound to Fe(III) sites of transferrin | 1.9 ± 0.7 nmol per mg protein | 74 ± 3 ^g molar % |  | 7 ± 1 nm | 
4 | RuFeTf: apoTf + 1.0 eq. [Fe^III(nta)2]^3−, then 1.0 eq. [Ru^III(nta)2]^3−; mixed Ru(III)–Fe(III)–Tf adduct |  |  |  | 6.5 ± 1 nm | 
5 | Cc1ccc(C(C)C)cc1.[Cl][Ru]([Cl])[PH]12CN3CN(CN(C3)C1)C2 [RAPTA-C, [Ru^II(η^6-p-cymene)Cl2(pta)]] |  |  | did not have any effect |  | 
6 | CS(C)=O.[Cl-].[Cl-].[Cl-].[Cl-].[Ru+3].c1c[nH+]c[nH]1.c1c[nH]cn1 [NAMI-A, (ImH)[Ru^IIICl4(Im)(S-dmso)]] |  |  | did not have any effect |  | 
7 | [Cl-].[Cl-].[Cl-].[Cl-].[Ru+3].c1ccc2[nH+][nH]cc2c1.c1ccc2[nH]ncc2c1.c1ccc2[nH]ncc2c1 [KP1019 fresh] | 11.2 ± 6.5 ^f nmol per mg protein | 46 ± 4 molar % |  |  | Ru Uptake (cellular metal content) (HepG2 cells [1]): 6.6 ± 2.8 ^e nmol per mg protein; Toxicity judged from cell morphology (HepG2 cells [6]): significant cell detachment
8 | monoFeTf: apoTf + 1.0 eq. [Fe^III(nta)2]^3−; mixture of FeCTf and FeNTf forms |  |  |  | 7 ± 1 nm | 
9 | apoTf: human apo transferrin |  |  |  | 7 ± 1 nm | Kd [7]: 32 nM
10 | Fe2Tf: fully Fe(III)-saturated human transferrin |  |  |  | 7 ± 2 nm | Kd [7]: 22 nM
